Assay results from US20250388597A1, “BIFUNCTIONAL PHOTOCROSSLINKING PROBES FOR COVALENT CAPTURE OF PROTEIN-NUCLEIC ACID COMPLEXES IN CELLS” (UNIVERSITY OF SOUTHERN CALIFORNIA, priority 2022, published 2025).
“Also recorded” adds a separate entry of the source.

Assays:
NFAT1/DNA complex = target: T1, NFAT1/DNA complex (Homo sapiens, UniProt Q13469); assay: In vitro photo-crosslinking of assembled NFAT1/DNA complex, denaturing SDS gel; assay type: biochemical
T1 construct: human NFAT1 protein (residue 399-676, NFAT1-DBD)
T1 sequence (Q13469 399-676): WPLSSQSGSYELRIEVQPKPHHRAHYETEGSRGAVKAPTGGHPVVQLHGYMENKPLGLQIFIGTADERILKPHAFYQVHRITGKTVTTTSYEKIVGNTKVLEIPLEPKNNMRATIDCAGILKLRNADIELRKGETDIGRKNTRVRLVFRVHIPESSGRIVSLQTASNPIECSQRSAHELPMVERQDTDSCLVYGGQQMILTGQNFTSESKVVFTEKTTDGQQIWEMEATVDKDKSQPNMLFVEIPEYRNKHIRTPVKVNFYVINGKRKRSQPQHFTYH
Experimental: The probe binding and UV crosslinking were carried out as described in FIG. 5G and FIG. 7. The crosslinked complexes (lane 3 and lane 6) were further treated with DTT (100 mM, heat 50 degree C. for 30 min). The reaction mixtures were run on SDS gel and visualized by FAM fluorescence for DNA (top) and by Coomassie blue stain for protein (bottom) as described in FIG. 7. FIG. 7 depicts denaturing SDS gel analysis of covalent capture of in vitro assembled MEF2/DNA and NFAT1/DNA complexes by the BFPX probe, SPB-AAD. […] The protein/DNA complexes are incubated at room temperature for 30 min, and treated with various combination of BFPX probe (SPB-AAD) and UV illumination as described in FIG. 5G. […] The reaction mixtures were added SDS loading dye (2% SDS), boil for 10 min, and run on SDS gel (Bio-Rad Any Kd gradient gel). The same gel was visualized by FAM fluorescence for DNA (top) and by Coomassie blue stain for protein (bottom). FIG. 8C depicts denaturing SDS gel analysis of covalent capture of in vitro assembled MEF2/DNA and NFAT1/DNA complexes by the BFPX probe, SPB-PEG3-AAD. […] The reaction mixtures were run on SDS gel and visualized by FAM fluorescence for DNA (top) and by Coomassie blue stain for protein (bottom) as described in FIG. 7. […] Typically protein and DNA are mixed to bind at room temperature for 30 min, followed by addition of BFPX probes for an additional 15 min and then UV illumination. In the case of FA treatment, the reaction time is 10 min at room temperature and then quenched by 250 mM glycine. […] The UV illumination (as indicated by a positive sign) was carried out using a LED Chip (21.4 mm×21.4 mm, 365-370 nm, 30 Watt, sample distance 2 cm, exposure time 2-15 min at 4 degree C., here the exposure time is 15 min). […] The small amount of single stranded DNA is due to incomplete annealing. The higher smearing bands are most likely non-specific protein complexes. Neither of these experimental imperfections affected the main conclusion of this experiment because the double stranded-DNA bands and the specific NFAT-DNA complex bands (the middle sharp bands) are well defined and can be monitored without the interference of the other bands. […] The gel was visualized by Cy5 fluorescence for DNA. FIG. 12E depicts further characterization of BFPX crosslinking of NFAT1/DNA complexes using different DNA substrates and staining techniques. Two unlabeled DNA substrates containing a core NFAT-binding site and different flanking bases and sequence lengths ([…] ID NO: 4), 21 mer, c2: [NT] ID NO: 5), 16 mer) were used to bind the NFAT1-DBD as described in FIG. 12C. […] The reactions were then analyzed by SDS PAGE under denaturing condition as described in FIG. 12D. Because the DNA is unlabeled, the gel was stained using either cyanine-based dye (SYBR Safe) or Coomassie Blue stain (CB). […] The different size of the NFAT-c1DNA complexes (lane 2) and NFAT-c2DNA complexes (lane 4) was resolved by loading reactions of lane 2 (2a, 2b and 2c) and lane 4 (4a, 4b and 4c) as triplicates side-by-side on the same gel (lower panel) using either SYBR and CB stain. FIG. 12F depicts time course of BFPX crosslinking of NFAT1/DNA complexes. […] The reactions at different time points were then analyzed on SDS gel as described in FIG. 12D. […] When the UV exposure time is longer than 5 min, a significant amount of crosslinked NFAT-DNA complex can be formed with UV illumination without SPB-AAD.

GM12878 cell lines = assay: Crosslinking in suspension GM12878 cell lines, electrophoresis after sonication; assay type: cell-based; conditions: compared to the no-probe or no-UV controls; FIG. 5F
Text: For this, we tested the prototype BFPX probe 4AMT-LC-SDA in the suspension GM12878 cell lines.

DNA binding by NFAT1 = target: T2, DNA binding by NFAT1 (Homo sapiens, UniProt Q13469); assay: Native EMSA of the effect on DNA binding by NFAT1; assay type: biochemical
T2 construct: human NFAT1 protein (residue 399-676, NFAT1-DBD)
T2 sequence (Q13469 399-676): T1 sequence (Q13469 399-676)
Experimental: All binding reactions contain 10 μM 27 mer dsDNA (5′6-FAM labeled) with a NFAT-binding site, and various combinations of NFAT1 protein (14 μM), FA (1% v/v), 4AMT-LC-SDA (20 μM), with or without UV illumination (365 nm, LED, 30 Watt, sample distance 2 cm, exposure time 15 min at 4 degree C.). 10 μl of the binding reaction is run on a 10% PAGE 0.5×TBE gel. The same gel was visualized by FAM fluorescence for DNA (top) and by Coomassie blue stain for protein (bottom). The higher smearing bands in lane 3, 8, 9, and 10 are most likely non-specific protein complexes often seen when an excessive amount of protein is used to ensure all DNA is bound.
The binding reactions were performed in a buffer of 20 mM Hepes pH 7.6, 150 mM NaCl, 1 mM DTT, 12% glycerol. Typically protein and DNA are mixed to bind at room temperature for 30 min, followed by addition of BFPX probes for an additional 15 min and then UV illumination. In the case of FA treatment, the reaction time is 10 min at room temperature and then quenched by 250 mM glycine. When included (as indicated by a positive sign), the binding reaction contains 10 μM 27 mer dsDNA (Cy5-labeled) with a NFAT-binding site (the antigen receptor response element 2, ARRE2, from the IL-2 promoter, 5′-Cy5-[sequence]-3′ (SEQ ID NO: 2), the complementary strand is not labeled), 24 μM of the DNA binding domain (DBD) of human NFAT1 protein (residue 399-676, NFAT1-DBD). The UV illumination (as indicated by a positive sign) was carried out using a LED Chip (21.4 mm×21.4 mm, 365-370 nm, 30 Watt, sample distance 2 cm, exposure time 2-15 min at 4 degree C., here the exposure time is 15 min). Half of the binding reaction (7.5 μl) was run on a 10% PAGE 0.5×TBE gel and visualized by Cy5 fluorescence on DNA. The small amount of single stranded DNA is due to incomplete annealing. The higher smearing bands are most likely non-specific protein complexes. Neither of these experimental imperfections affected the main conclusion of this experiment because the double stranded-DNA bands and the specific NFAT-DNA complex bands (the middle sharp bands) are well defined and can be monitored without the interference of the other bands.
The presence of both DNA and protein in the same shifted band can be checked by the FAM fluorescence signal (top) and Coomassie stain (bottom), respectively (free NFAT is positively charged and not observable under the EMSA condition).

MEF2A/DNA complex = target: T3, MEF2A/DNA complex (Homo sapiens, UniProt Q02078); assay: In vitro photo-crosslinking of assembled MEF2/DNA complex, read on denaturing SDS/urea gel or agarose gel; assay type: biochemical; conditions: for selectivity for DNA binding protein versus non-DNA binding protein BSA: BSA under the same condition; for formation of covalent MEF2/DNA crosslinked complex: probe + UV, denaturing gel
T3 construct: human MEF2A DBD (residues 2-95); made in house
T3 sequence (Q02078 2-95): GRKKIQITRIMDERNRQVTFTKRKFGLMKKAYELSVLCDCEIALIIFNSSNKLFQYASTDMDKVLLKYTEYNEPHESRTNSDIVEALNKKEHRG
Text: In vitro assays have confirmed the success and the efficiency of the demo probe (AMT-LC-SDA) in crosslinking double strand DNA of various contents and DNA-binding protein human myocyte enhancer factor 2A (MEF2A) (1-95 aa) (FIG. 5C-FIG. 5E). The solid crosslinking is confirmed for the probe with UV photo crosslinking conditions by denaturing or digestive approaches such as running with 8.3 M urea gel, SDS gel, combined with sample with overnight digestion of proteinase K at 65 Celsius and denatured at high temperature of 95 Celsius with SDS loading dye. […] Under these harsh evaluation conditions, the protein got digested on the crosslinking complex thoroughly, yet the remaining crosslinked amino acids residuals still have made the DNA to be in a larger size and shifted clearly compared to other controls, which is indicated by the bold shaped arrow. Agarose gel was also used for its bigger pore size to estimate the crosslinking efficiency (UV 2 hrs), estimated by the amount of the left free DNA, our probe has reached around 30-60% efficiency (FIG. 5E), which is much higher than the UV-initiated protein DNA crosslinking without the use of a probe (10-20%) as reported in Nature Communications, volume 11, Article number: 3019 (2020). […] This further supports the idea of applying this probe for replacement of formaldehyde, it crosslinks the protein only within the proximity of nucleic acids, thereby largely reducing the random protein-protein crosslinking noise and helps to preserve the native state of protein epitopes.
The BFPX probe 4AMT-LC-SDA was synthesized with good yield by the NHS-amine chemistry using psoralen and diazirine derivatives (FIG. 5A, FIG. 5B). To test its photo crosslinking ability, human transcription factor MEF2A (the MADS-box/MEF2 domain) and double strand DNA containing a MEF2 binding site were used. We first used electrophoresis mobility shift assay (EMSA) to validate the activity of the purified recombinant MEF2A DNA-binding domain. After finding out the optimal protein to DNA ratio, the in vitro assembled MEF2/DNA complex was then subject to photocrosslinking in the presence or absence of the 4AMT-LC-SDA probe with or without UV illumination. Multiple other control experiments were carried out in parallel to test the specificity of photocrosslinking between the DNA and MEF2. Specifically, parameters such as protein/DNA amounts (1:[…]), ratio, UV time (10 m to 4 hrs), wavelength (320 to 360 nm), LV source (mercury long lamp, LED) and their distance to the reaction mixture have been optimized along the course. The MEF2 Protein and DNA were incubated first to mimic an in vivo binding mode and stoichiometry, and then the mixture was incubated with our 4AMT-LC-SDA probe to undergo UV illumination. The results were evaluated by running denaturing gels (SDS in FIG. 5D, or Urea in FIG. 5C) against the high temperature denatured reaction mixtures and checking the respective protein (silver stain) or DNA (FAM label) signals. To further rule out any other possible false positiveness during loading, proteinase K digestion was applied to all the samples including the negative controls with SDS at 65 degrees.

effect of DTT treatment on the crosslinked NFAT-DNA complex (NFAT1/DNA complex; 25 μM probe, DTT 100 mM, 50 degree C., 30 min, FIG. 5H): little effect | effect on the DNA binding by NFAT1 (DNA binding by NFAT1; FIG. 5G, FA 1% v/v, 4AMT-LC-SDA 20 μM with or without UV 365 nm): did not affect | effect on NFAT1 protein (DNA binding by NFAT1; with and without UV365, data not shown): did not affect NFAT1 protein | photo crosslinking efficiency of the MEF2-DNA complex (MEF2A/DNA complex; agarose gel, comparison of band intensities): around 50% | crosslinking efficiency, estimated by the amount of the left free DNA (MEF2A/DNA complex; agarose gel, UV 2 hrs, dsDNA + MEF2A (1-95 aa)): 30-60%
Compound: Cc1oc2c(C)c3oc(=O)cc(C)c3cc2c1CNC(=O)CCCCCNC(=O)CCC1(C)N=N1 [4AMT-LC-SDA]
formation of covalent NFAT1/DNA crosslinked complex stable under denaturing SDS-PAGE (NFAT1/DNA complex; probe + UV 365 nm, 2% SDS, boil 10 min): highly efficient crosslinking; also recorded: crosslinked NFAT to its DNA substrate efficiently | crosslink effect in cells (GM12878 cell lines): good crosslink effect | selectivity for DNA binding protein versus non-DNA binding protein BSA (MEF2A/DNA complex): did not show any signs of forming crosslink with the DNA | selectivity for DNA binding protein versus non-DNA binding protein BSA (MEF2A/DNA complex; listed as AMT-LC-SDA): only MEF2A sample shows consumption of DNA substrate by crosslinking | formation of covalent MEF2/DNA crosslinked complex (MEF2A/DNA complex): successful photo crosslink complex between protein and DNA; also recorded: highly efficient crosslinking | formation of covalent MEF2/DNA crosslinked complex (MEF2A/DNA complex; listed as AMT-LC-SDA): the crosslinking of protein and nucleic acids takes place
